Holding throughout (type): cell-based
One assay addresses T1, GlyT2 F428A mutant (Homo sapiens, UniProt Q9Y345, F428A).
T1 construct: expressed in transfected cells; host or cells: Xenopus laevis oocytes (cRNA injection)
T1 sequence (Q9Y345 1-797 F428A): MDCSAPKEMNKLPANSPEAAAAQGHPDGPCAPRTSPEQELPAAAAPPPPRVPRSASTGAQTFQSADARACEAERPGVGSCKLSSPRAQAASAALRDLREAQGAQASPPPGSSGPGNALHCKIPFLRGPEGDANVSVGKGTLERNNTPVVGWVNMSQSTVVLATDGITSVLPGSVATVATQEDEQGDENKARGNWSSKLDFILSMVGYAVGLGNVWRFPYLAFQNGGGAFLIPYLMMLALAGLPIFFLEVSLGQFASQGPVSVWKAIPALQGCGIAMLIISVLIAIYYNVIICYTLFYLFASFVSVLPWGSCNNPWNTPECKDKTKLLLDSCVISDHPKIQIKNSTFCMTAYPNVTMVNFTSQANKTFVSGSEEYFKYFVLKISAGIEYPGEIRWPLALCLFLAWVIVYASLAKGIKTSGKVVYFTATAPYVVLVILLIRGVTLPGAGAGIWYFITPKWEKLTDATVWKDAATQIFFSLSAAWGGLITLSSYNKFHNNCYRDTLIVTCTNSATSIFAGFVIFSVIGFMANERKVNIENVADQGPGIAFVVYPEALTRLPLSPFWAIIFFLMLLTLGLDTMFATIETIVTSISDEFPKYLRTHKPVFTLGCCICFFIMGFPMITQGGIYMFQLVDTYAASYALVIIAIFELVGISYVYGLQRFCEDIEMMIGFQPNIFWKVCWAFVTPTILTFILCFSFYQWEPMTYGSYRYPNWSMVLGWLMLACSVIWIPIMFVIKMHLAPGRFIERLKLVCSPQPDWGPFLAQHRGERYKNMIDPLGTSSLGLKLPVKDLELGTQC
The assay can be described thus: Glycine transport currents, two electrode voltage clamp, oocytes expressing GlyT2 F428A. As to conditions: for % Max. inhibition (% inhibition at the highest concentration of inhibitor used): footnote b. On the procedure: (§1) Glycine was first applied to establish maximal transport current.
(§2) Compounds were tested for inhibition of glycine transport on Xenopus laevis oocytes expressing mutant GlyT1 and GlyT2 transporters. n values are in brackets, with measurements taken from at least 2 batches of oocytes.
(In general: In two-electrode clamp one electrode senses voltage and the other passes current.)

A further assay deals with T2, GlyT2 V432A mutant (Homo sapiens, UniProt Q9Y345, V432A).
T2 construct: expressed in transfected cells; host or cells: Xenopus laevis oocytes (cRNA injection)
T2 sequence (Q9Y345 1-797 V432A): T1 sequence (Q9Y345 1-797 F428A) with A428F, V432A
The assay is described as follows: Glycine transport currents, two electrode voltage clamp, oocytes expressing GlyT2 V432A. The settings on record: for % Max. inhibition: mean ± SEM. On the procedure: as §1, §2

Another assay deals with T3, GlyT2 I545L mutant (Homo sapiens, UniProt Q9Y345, I545L).
T3 construct: expressed in transfected cells; host or cells: Xenopus laevis oocytes (cRNA injection)
T3 sequence (Q9Y345 1-797 I545L): T1 sequence (Q9Y345 1-797 F428A) with A428F, I545L
The assay is described as follows: Glycine transport currents, two electrode voltage clamp, Xenopus laevis oocytes expressing GlyT2 I545L. The settings on record: for % Max. inhibition: mean ± SEM. The method, then:
as §1, §2

Setting [1] is: GlyT2 V432A, greater than maximum concentration applied (footnote a).
Setting [2] is: GlyT2 I545L, greater than maximum concentration applied (footnote a).

Positions count from the first letter of the chain named. Bounds are passed on as bounds.

With `NCC(=O)O` [Glycine], the half-maximal effective concentration (EC50) on GlyT2 F428A mutant (glycine transport, GlyT2 F428A (TM5)) amounted to 6.2 ± 0.4 µM; on GlyT2 V432A mutant (glycine transport, GlyT2 V432A (TM5)), 114 ± 21.6 µM.

In the case of `CCCCC/C=C\C/C=C\C/C=C\C/C=C\CCCC(=O)NCC(=O)O` [N-arachidonyl Glycine, reference compound], the “% Max. inhibition (% inhibition at the highest concentration of inhibitor used)” value at GlyT2 F428A mutant (GlyT2 F428A) was 64.7 ± 6.6^b (p=0.9998) %. Also, the IC50 at GlyT2 F428A mutant (GlyT2 F428A, mean (95% CI)) is 14.4 µM; against GlyT2 V432A mutant (setting [1]), above 10 µM. Moreover, the “% Max. inhibition” value at GlyT2 V432A mutant (GlyT2 V432A) is 4.2 ± 3.2 (p=0.0018) %.

On to `CCCCCCCC/C=C\CCCCCCCC(=O)NCC(=O)O` [N-oleoyl Glycine, reference compound], for which the half-inhibitory concentration (IC50) at GlyT2 F428A mutant (GlyT2 F428A) and at GlyT2 V432A mutant (setting [1]) was above 10 µM each time. Moreover, the “% Max. inhibition” value at GlyT2 F428A mutant (GlyT2 F428A, mean ± SEM) is listed as 25.4 ± 4.9 (p=0.0001) %. In addition, the “% Max. inhibition (% inhibition at the highest concentration of inhibitor used)” value at GlyT2 V432A mutant (GlyT2 V432A, footnote b) was 1.9 ± 3.2^b (p=0.0001) %.

Take `CCCCCCCC/C=C\CCCCCCCC(=O)O[C@H](CC(=O)[O-])C[N+](C)(C)C` [oleoyl L-Carnitine, reference compound]: the IC50 against GlyT2 F428A mutant (GlyT2 F428A) and against GlyT2 V432A mutant (setting [1]) was above 3 µM in each case. Further, the “% Max. inhibition (% inhibition at the highest concentration of inhibitor used)” value on GlyT2 F428A mutant (GlyT2 F428A) is on record as 22.7 ± 3.0^b (p=0.0001) %. Besides, the “% Max. inhibition” value on GlyT2 V432A mutant (GlyT2 V432A) is 6.0 ± 3.2 (p=0.0001) %.

On GlyT2 I545L mutant (setting [2]), `CCCCCCCC/C=C\CCCCCCCC(=O)N[C@@H](CC(=O)O)C(=O)O` [oleoyl l-Aspartate] returned a 50% inhibitory concentration (IC50) above 10 µM. Moreover, the “% Max. inhibition” value at GlyT2 I545L mutant (GlyT2 I545L) is 4.9 ± 6.4 (p=0.0001) %.

Take `CCCCCCCC/C=C\CCCCCCCC(=O)N[C@@H](CCCCN)C(=O)O` [oleoyl l-Lysine]: the “fold lower potency at I545L” value at GlyT2 I545L mutant (GlyT2 I545L compared with WT GlyT2) is given as ~ 17 fold. Also, the 50% inhibitory concentration (IC50) is 0.443 µM against GlyT2 I545L mutant (GlyT2 I545L, mean (95% CI)); above 3 µM against GlyT2 F428A mutant (GlyT2 F428A); 0.0684 µM on GlyT2 V432A mutant (GlyT2 V432A, mean (95% CI)). Besides, the “% Max. inhibition” value is on record as 80.7% at GlyT2 I545L mutant (GlyT2 I545L) and 71.9 ± 1.9 (p=0.0001) % at GlyT2 V432A mutant (GlyT2 V432A). Besides, the “% Max. inhibition (% inhibition at the highest concentration of inhibitor used)” value at GlyT2 F428A mutant (GlyT2 F428A) is given as 39.2 ± 2.3^b (p=0.0001) %.

`CCCCCCCC/C=C\CCCCCCCC(=O)N[C@@H](Cc1c[nH]c2ccccc12)C(=O)O` [oleoyl l-Tryptophan]: at GlyT2 I545L mutant (setting [2]), the IC50 was above 10 µM. Also, the “% Max. inhibition” value on GlyT2 I545L mutant (GlyT2 I545L) was 20.2 ± 1.7 (p=0.0001) %.

Take `CCCCCCCC/C=C\CCCCCCCC(=O)N[C@H](C(=O)O)C(C)C` [oleoyl l-Valine]: the “% Max. inhibition (% inhibition at the highest concentration of inhibitor used)” value on GlyT2 I545L mutant (GlyT2 I545L, footnote b) was 22.5 ± 8.0^b (p=0.0001) %. At GlyT2 I545L mutant (setting [2]), this compound gave a half-maximal inhibitory concentration (IC50) above 10 µM.

A word on the EC50: it is the concentration giving half of the maximal effect. The low end stands for an effect from little substance, the high end for a need for much substance. For orientation: IC50 means the concentration that inhibits the measured activity by half. A high value points to weaker potency.
